In US7452997B2 (priority 2004, dated 2008):
Where two headings read alike, the source gives them in different places.

What was measured:
human CB2 receptor = human CB2 receptor (Homo sapiens, UniProt P34972); test: Binding assay, cannabinoid CB2 receptor ([3H]-CP-55,940 displacement); conditions: SK-N-MC cell membranes, radioligand CP-55,940 0.2 nM
Outline: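 Membranes from SK-N-MC cells stably expressing human CB2, incubated with test compound and 0.2 nM [3H]-CP-55,940 for 90 min at 30 °C in Tris buffer pH 7.5 with fatty-acid-free BSA. Nonspecific binding defined with 10 uM WIN 55,212; filtration and scintillation counting, IC50 by linear regression.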

human CB1 receptor = molecular target: T1, human CB1 receptor (Homo sapiens, UniProt P21554); test: biochemical; assay type: binding
T1 construct: expressed in transfected cells; host or cells: SK-N-MC cells, stably transfected with pcDNA3 CB-1 (human); semi-purified membrane pellet
Outline: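 Membranes from SK-N-MC cells stably expressing human CB1, incubated 90 minutes at 30° C in Tris-HCl buffer with MgCl2, EDTA and fatty acid free BSA, pH 7.5. Bound counts collected by filtration and scintillation counting; IC50 from linear regression over varying compound concentrations.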

[1] = Cannabinoid CB2 Receptor Binding IC50, human CB2 receptor

T1 sequence (P21554 whole entry): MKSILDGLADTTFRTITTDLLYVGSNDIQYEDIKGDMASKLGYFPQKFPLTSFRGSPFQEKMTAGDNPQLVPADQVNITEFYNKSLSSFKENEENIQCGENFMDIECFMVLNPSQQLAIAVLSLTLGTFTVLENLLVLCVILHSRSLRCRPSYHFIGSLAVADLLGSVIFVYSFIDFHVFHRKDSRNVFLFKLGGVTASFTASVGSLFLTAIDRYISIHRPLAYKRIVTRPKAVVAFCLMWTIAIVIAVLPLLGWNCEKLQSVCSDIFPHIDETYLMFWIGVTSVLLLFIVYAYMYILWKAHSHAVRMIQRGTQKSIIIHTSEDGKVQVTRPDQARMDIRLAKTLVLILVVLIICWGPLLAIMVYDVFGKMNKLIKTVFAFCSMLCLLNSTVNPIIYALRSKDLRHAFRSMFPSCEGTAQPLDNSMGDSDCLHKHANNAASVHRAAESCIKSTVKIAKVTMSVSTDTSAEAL
Sequence of human CB2 receptor (P34972 whole entry): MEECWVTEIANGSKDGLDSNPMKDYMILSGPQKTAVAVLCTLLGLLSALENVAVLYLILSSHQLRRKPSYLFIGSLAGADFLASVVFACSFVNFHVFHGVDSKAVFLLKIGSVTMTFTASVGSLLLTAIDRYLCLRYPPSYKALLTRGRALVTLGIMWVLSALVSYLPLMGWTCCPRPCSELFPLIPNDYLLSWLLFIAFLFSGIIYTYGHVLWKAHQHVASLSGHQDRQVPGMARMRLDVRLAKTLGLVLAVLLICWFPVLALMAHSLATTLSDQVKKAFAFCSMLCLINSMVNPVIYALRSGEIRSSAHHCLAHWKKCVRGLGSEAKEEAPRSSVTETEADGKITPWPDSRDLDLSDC

| SMILES | IC50 (human CB2 receptor; [1]) [nM] | IC50 (human CB1 receptor) [nM] | IC50 (human CB2 receptor; human CB2 receptor, read-out: Cannabinoid CB2 Receptor Binding IC50) [nM] | IC50 (human CB1 receptor; human CB1 receptor, SK-N-MC cell membranes, radioligand CP-55,940 0.2 nM, read-out: Cannabinoid CB1 Receptor Binding IC50) [nM] |
| --- | --- | --- | --- | --- |
| CC(NC(=O)c1nn(C2CCCCC2)c2c1CC(CO)CC2)C12CC3CC(CC(C3)C1)C2 (stereo not shown) [Cpd 143, 1-cyclohexyl-5-hydroxymethyl-4,5,6,7-tetrahydro-1H-indazole-3-carboxylic acid (1-adamantan-1-yl-ethyl)-amide] | 1260 | 2400 | – | – |
| CCOC(=O)[C@H]1CCC[C@H]1NC(=O)c1nn(C2CCCCC2)c2c1CCCC2 [compound 58] | 170 | 736 | – | – |
| CC(C)(Cc1nn(C2CCCCC2)c2c1CCCC2)C(=O)NC1C2CC3CC(C2)CC1C3 (stereo not shown) [Cpd 66, N-adamantan-2-yl-3-(1-cyclohexyl-4,5,6,7-tetrahydro-1H-indazol-3-yl)-2,2-dimethyl-propionamide] | 1400 | 3590 | – | – |
| C[C@@H](NC(=O)c1nn(C2CCCCC2)c2c1CCCC2)c1ccccc1 [compound 197] | 800 | 980 | – | – |
| CC12CCC(C1)C(C)(C)[C@H]2NC(=O)c1nn(-c2ccc(F)cc2)c2c1CCCC2 (stereo partly shown) [compound 202] | 4.5 | 115 | – | – |
| CC12CCC(C1)C(C)(C)C2NC(=O)CCc1nn(C2CCCCC2)c2c1CCCC2 (stereo not shown) [Cpd 50, 3-(1-cyclohexyl-4,5,6,7-tetrahydro-1H-indazol-3-yl)-N-(1,3,3-trimethyl-bicyclo[2.2.1]hept-2-yl)-propionamide] | 13 | 255 | – | – |
| CCOC(=O)C1CCc2c(C(=O)NC(C)C34CC5CC(CC(C5)C3)C4)nn(C3CCCCC3)c2C1 (stereo not shown) [compound 69] | 2.7 | 220 | – | – |
| CCOC(=O)[C@H]1C2CCC(C2)[C@H]1NC(=O)c1nn(CC2CCCCC2)c2c1CCCC2 (stereo partly shown) [compound 124] | 16 | 7 | – | – |
| O=C(Nc1nn(C2CCCCC2)c2c1CCCC2)c1cccc2ccccc12 [compound 181] | 1600 | 300 | – | – |
| CC(C)(C)C1CCc2c(c(C(=O)NC3C4(C)CCC(C4)C3(C)C)nn2C2CCCCC2)C1 (stereo not shown) [compound 99] | 250 | 960 | – | – |
| CCOC(=O)N1CCC(NC(=O)c2nn(Cc3ccccc3)c3c2CCCC3)CC1 [compound 171] | 300 | 640 | – | – |
| CS(=O)(=O)NC1CCc2c(c(C(=O)NC3C4CC5CC(C4)CC3C5)nn2C2CCCCC2)C1 (stereo not shown) [compound 104] | 200 | 17100 | – | – |
| CC12CCC(C1)C(C)(C)C2NC(=O)c1nn(C2CCCCC2)c2c1CC(O)CC2 (stereo not shown) [Cpd 93, 1-cyclohexyl-5-hydroxy-4,5,6,7-tetrahydro-1H-indazole-3-carboxylic acid (1,3,3-trimethyl-bicyclo[2.2.1]hept-2-yl)-amide] | 20 | 1150 | – | – |
| CC1CCCCC1NC(=O)c1nn(C2CCCCC2)c2c1CCCC2 (stereo not shown) [compound 245] | 2 | 20 | – | – |
| CCOC(=O)[C@H]1C2C=CC(C2)[C@H]1NC(=O)c1nn(C2CCCCC2)c2c1CCCC2 (stereo partly shown) [compound 279] | 830 | 3800 | – | – |
| CCOC(=O)[C@H]1CCCC[C@@H]1NC(=O)c1c2c(nn1Cc1ccccc1)CCCC2 [compound 271] | 2600 | 6200 | – | – |
| CC(NC(=O)c1nn(C2CCCCC2)c2c1CCCC2Cl)C12CC3CC(CC(C3)C1)C2 (stereo not shown) [compound 64] | 30 | 410 | – | – |
| CCOC(=O)[C@H]1C2CCC(C2)[C@H]1NC(=O)c1nn(C2CCCCC2)c2c1CCCC2Cl (stereo partly shown) [compound 63] | 3300 | 13700 | – | – |
| CC1(C)C2CCC1(C)C(NC(=O)c1nn(-c3ccc(F)cc3)c3c1CCCC3)C2 (stereo not shown) [compound 21] | 11 | 44 | – | – |
| CCOC(=O)[C@@H]1C2CCC(C2)[C@@H]1NC(=O)c1nn(Cc2ccccc2)c2c1CCCC2 (stereo partly shown) [compound 274] | 1.6 | 18.7 | – | – |
| CCOC(=O)C1CC=CCC1NC(=O)c1nn(C2CCCCC2)c2c1CCCC2 (stereo not shown) [compound 301] | 33 | 24 | – | – |
| O=C(NCc1cccnc1)c1nn(C2CCCCC2)c2c1CCCC2 [compound 173] | 526 | 444 | – | – |
| O=C(NCC12CC3CC(CC(C3)C1)C2)c1nn(-c2ccc(Cl)cc2Cl)c2c1CCCC2 [compound 141] | 140 | 300 | – | – |
| CC12CCC(C1)C(C)(C)C2NC(=O)c1nn(-c2ccc(F)cc2)c2c1CCCC2C1CCCCC1 (stereo not shown) [compound 24] | 6820 | 3810 | – | – |
| O=C(NC1CCCCCCC1)c1nn(-c2ccc(F)cc2)c2c1CCCC2 [compound 15] | 53.8 | 241 | – | – |
| COc1ccccc1CCNC(=O)c1nn(-c2ccccc2)c2c1CCCC2 [compound 238] | – | – | 3720 | 25100 |
| CCOC(=O)C1C2CCC(C2)C1NC(=O)c1nn(-c2ccc(F)cc2)c2c1CCCC2 (stereo not shown) [compound 23] | 100 | 1800 | – | – |

| SMILES | IC50 (human CB2 receptor; [1]) [nM] | IC50 (human CB1 receptor) [nM] | IC50 (human CB2 receptor; human CB2 receptor, read-out: Cannabinoid CB2 Receptor Binding IC50) [nM] | IC50 (human CB1 receptor; human CB1 receptor, SK-N-MC cell membranes, radioligand CP-55,940 0.2 nM, read-out: Cannabinoid CB1 Receptor Binding IC50) [nM] |
| --- | --- | --- | --- | --- |
| CCC1CCCc2c(C(=O)NC3C4(C)CCC(C4)C3(C)C)nn(-c3ccc(F)cc3)c21 (stereo not shown) [compound 192] | 2 | 60 | – | – |
| COC1CCCc2c(C(=O)NC(C)C34CC5CC(CC(C5)C3)C4)nn(C3CCCCC3)c21 (stereo not shown) [compound 161] | 775 | 5230 | – | – |
| CC(NC(=O)c1nn(C2CCCCC2)c2c1CC(C(N)=O)CC2)C12CC3CC(CC(C3)C1)C2 (stereo not shown) [compound 224] | 1200 | 1500 | – | – |
| CC(c1ccccc1)n1nc(C(=O)NCC2CCCCC2)c2c1CCCC2 (stereo not shown) [compound 242] | 1600 | 300 | – | – |
| O=C(NC1CCCc2ccccc21)c1nn(C2CCCCC2)c2c1CCCC2 (stereo not shown) [compound 183] | 6.9 | 50 | – | – |
| CCOC(=O)C1CCc2c(c(C(=O)N[C@H](C)C3CCCCC3)nn2Cc2ccccc2)C1 (stereo partly shown) [compound 289] | 400 | 880 | – | – |
| CCOC(=O)C1CCc2c(c(C(=O)NC(C)C34CC5CC(CC(C5)C3)C4)nn2Cc2ccccc2)C1 (stereo not shown) [compound 148] | 30 | 13 | – | – |
| CCOC(=O)[C@@H]1C2C=CC(C2)[C@@H]1NC(=O)c1nn(C2CCCCC2)c2c1CCCC2 (stereo partly shown) [compound 280] | 679 | 3600 | – | – |
| COC(=O)C(Cc1ccc(OCc2ccccc2)cc1)NC(=O)c1nn(C2CCCCC2)c2c1CCCC2 (stereo not shown) [compound 81] | 20 | 490 | – | – |
| CCOC(=O)C1CCc2nn(Cc3ccccc3)c(C(=O)NC34CC5CC(CC3C5)C4)c2C1 (stereo not shown) [compound 227] | 1150 | 2770 | – | – |
| CC(c1ccccc1)n1nc(C(=O)NC23CC4CC(CC(C4)C2)C3)c2c1CCCC2 (stereo not shown) [compound 244] | 79 | 300 | – | – |
| C[C@H](C1CCCCC1)N(C)C(=O)c1nn(C2CCCCC2)c2c1CCCC2 [Cpd 328, 1-cyclohexyl-4,5,6,7-tetrahydro-1H-indazole-3-carboxylic acid [(1R)-1-cyclohexyl-ethyl]-methylamide] | 1600 | 5100 | – | – |
| CCOC(=O)C1CC=CCC1NC(=O)c1nn(Cc2ccccc2)c2c1CCCC2 (stereo not shown) [compound 119] | 10 | 6 | – | – |
| CCOC(=O)[C@H]1C2CCC(C2)[C@H]1NC(=O)c1nn(C2CCCCC2)c2c1CCCC2OC (stereo partly shown) [compound 282] | 3800 | 11800 | – | – |
| CC12CCC(C1)C(C)(C)C2NC(=O)c1nn(C2CCCCC2)c2c1CC(N)CC2 (stereo not shown) [Cpd 92, 5-amino-1-cyclohexyl-4,5,6,7-tetrahydro-1H-indazole-3-carboxylic acid (1,3,3-trimethyl-bicyclo[2.2.1]hept-2-yl)-amide] | 90 | 1600 | – | – |
| CCOC(=O)[C@@H]1CCC[C@@H]1NC(=O)c1nn(C2CCCCC2)c2c1CCCC2Cl (stereo partly shown) [compound 61] | 190 | 2190 | – | – |
| CCOC(=O)[C@@H]1C2C=CC(C2)[C@@H]1NC(=O)c1c2c(nn1Cc1ccccc1)CCCC2 (stereo partly shown) [compound 277] | 3300 | 1300 | – | – |
| CCOC(=O)[C@H]1C2CCC(C2)[C@H]1NC(=O)c1nn(-c2ccc(Cl)cc2Cl)c2c1CCCC2 (stereo partly shown) [compound 130] | 5 | 400 | – | – |
| C[C@H](NC(=O)c1nn(Cc2ccccc2)c2c1CCCC2)c1ccccc1 [compound 200] | 1 | 8 | – | – |
| O=C(NC1C2CC3CC(C2)CC1C3)c1nn(C2CCCCC2)c2c1CC(C(=O)OCc1ccccc1)CC2 (stereo not shown) [compound 79] | 10 | 30 | – | – |
| CCOC(=O)C(Cc1nn(C2CCCCC2)c2c1CCCC2)c1ccccc1OC (stereo not shown) [Cpd 332, 3-(1-cyclohexyl-4,5,6,7-tetrahydro-1H-indazol-3-yl)-2-(2-methoxy-phenyl)-propionic acid ethyl ester] | 1900 | 3900 | – | – |
| CC(NC(=O)CCc1nn(C2CCCCC2)c2c1CCCC2)C12CC3CC(CC(C3)C1)C2 (stereo not shown) [compound 53] | 230 | 6120 | – | – |
| CC(NC(=O)c1nn(C2CCCCC2)c2c1CC(C(=O)O)CC2)C12CC3CC(CC(C3)C1)C2 (stereo not shown) [compound 133] | 1340 | 12000 | – | – |
| C[C@@H](NC(=O)c1nn(Cc2ccccc2)c2c1CCCC2)C1CCCCC1 [compound 198] | 5.7 | 100 | – | – |
| O=C(N[C@H]1CCCC[C@H]1CO)c1nn(C2CCCCC2)c2c1CCCC2Cl (stereo partly drawn) [Cpd 60, 7-chloro-1-cyclohexyl-4,5,6,7-tetrahydro-1H-indazole-3-carboxylic acid [(1S,2R)-2-hydroxymethyl-cyclohexyl]-amide] | 515 | 5230 | – | – |
| O=C(N[C@@H]1CCCC[C@H]1CO)c1nn(C2CCCCC2)c2c1CCCC2 [compound 49] | 72.8 | 150 | – | – |
